Measured values taken from patent publication US8703107B2, “Cosmetic composition including leucodopachrome derivative” (Chanel Parfums Beaute, priority 2009, dated 2014).

Tested on: Hyperpigmented melanocytes derived from normal neonatal prepuce
Assay: Effect on melanin synthesis in cultured hyperpigmented melanocytes (melanin content read at 490 nm)
Type: cell-based
Procedure: 3 solutions of methyl ester of triacetyl leucodopachrome were prepared, respectively at concentrations of 0.0025%, 0.00025% and 0.000025% by weight in DMSO.
The effect of the methyl ester of (S)-triacetyl leucodopachrome on melanin synthesis was evaluated according to the following procedure.
Hyperpigmented melanocytes derived from normal neonatal prepuce of separate donors were bought from the company Cascade Biologics (Portland, Oreg., United States). The cells were seeded in 6-well plates and cultured in a growth medium of the melanocytes (medium topped up with bovine pituitary extract, fetal bovine serum, bovine insulin, transferrin, conventional fibroblast growth factor, hydrocortisone, heparin and phorbol 12-myristate 13-acetate).
In a second stage, the cells were incubated with a growth medium (MGM, Clonetics) containing the active products, in three copies, for 5 days. The medium was withdrawn and the cells washed with PBS (Gibco/Invitrogen). The cells were lyzed and the melanin solubilized in NaOH.
The supernatant was centrifuged. After centrifugation, the clear lysate was transferred to a new plate and the melanin content was measured on an ELISA reader at 490 nm. The pellets were visualized on an Alphalnnotech imager.

COC(=O)[C@@H]1Cc2cc(OC(C)=O)c(OC(C)=O)cc2N1C(C)=O [methyl ester of (S)-triacetyl leucodopachrome]
inhibition of the melanin synthesis (in words) (0.000025% to 0.0025% solutions): increases with the concentration
inhibition at 2.5e-05 % strength (Melanocyte, 120 h, 0.000025% by weight solution in DMSO, 5 days incubation, melanin at 490 nm): 5.49%
inhibition at 0.00025 % strength (Melanocyte, 120 h, 0.00025% by weight solution in DMSO, 5 days incubation, melanin at 490 nm): 6.7%
inhibition at 0.0025 % strength (Melanocyte, 120 h, 0.0025% by weight solution in DMSO, 5 days incubation, melanin at 490 nm): 32.8%
